Measurements taken from patent publication US11111242B2, “Pyrrolo[2,3-d]pyrimidinyl, pyrrolo[2,3-b]pyrazinyl and pyrrolo[2,3-d]pyridinyl acrylamides” (Pfizer Inc., priority 2013, dated 2021).
pIC50: −log10 of the molar value. Where two headings read alike, the source gives them in different places.

What was measured:
[1] = tested on: IL-15 induced STAT5 phosphorylation in Human Whole Blood (total lymphocytes); test: HWB IL-15 Induced STAT5 Phosphorylation Assay; format: cell-based; conditions: Lymphocyte, IL-15 stimulated, read-out: HWB-IL15-pSTAT5 IC50
Method: HWB IL-15 Induced STAT5 Phosphorylation Assay
After mixing and incubating for 45 minutes at 37° C., 5 μl D-PBS (unstimulated control) or 20× stocks of 5 μl human IL-15 (final concentration is 50 ng/ml) were added, and mixed three times. After incubating 15 minutes at 37° C., 1× Lyse/Fix Buffer (BD Phosflow 5× Lyse/Fix Buffer) was added to all wells at 1000 μl/well, then incubated for 20 minutes at 37° C. and spun 5 mins at 1200 rpm. […] Following incubating at 4° C. over night, all the samples were transferred to 96-well polypropylene U-bottom plate, and checked by flow cytometry gated on total lymphocytes.

[2] = tested on: IL-15 induced P-STAT5 in human PBMC (total lymphocytes); test: PBMC IL-15 Induced P-STAT5; format: cell-based; conditions: IL-15 stimulated, read-out: PBMC IL15-pSTAT5 IC50
Outline: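 Thawed human PBMC in RPMI, preincubated 30 min at 37 °C, then IL-15 stimulated. Cells methanol-permeabilized (90%, on ice 20 min) and stained for phospho-STAT5. Read by flow cytometry, gated on total lymphocytes.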

SMILES	pIC50 [1]	pIC50 [2]	pIC50 ([2]; Homo sapiens, PBMC)
C=CC(=O)N1C[C@H](Nc2ncnc3[nH]cc(CCOC)c23)CC[C@@H]1C [Example 13, 1-((2S,5R)-5-((5-(2-Methoxyethyl)-7H-pyrrolo[2,3-d]pyrimidin-4-yl)amino)-2-methylpiperidin-1-yl)prop-2-en-1-one]	6.26	6.95	–
C=CC(=O)N1C[C@@H](F)C[C@@H](Nc2ncnc3[nH]ccc23)C1 [Example 15, 1-((3R,5S)-3-((7H-Pyrrolo[2,3-d]pyrimidin-4-yl)amino)-5-fluoropiperidin-1-yl)prop-2-en-1-one]	6.40	–	6.89
C=CC(=O)N1C[C@@H](O)C[C@@H](Nc2ncnc3[nH]ccc23)C1 [Example 17, 1-((3R,5S)-3-(7H-Pyrrolo[2,3-d]pyrimidin-4-ylamino)-5-hydroxypiperidin-1-yl)prop-2-en-1-one]	6.68	–	7.14
C=CC(=O)N1C[C@H](Nc2ncnc3[nH]cc(Cl)c23)CC[C@@H]1C [Example 18, 1-((2S,5R)-5-((5-Chloro-7H-pyrrolo[2,3-d]pyrimidin-4-yl)amino)-2-methylpiperidin-1-yl)prop-2-en-1-one]	6.26	7.50	–
C=CC(=O)N1C[C@H](Nc2ncnc3[nH]ccc23)C[C@H](OC)C1 [Example 19, 1-((3R,5S)-3-((7H-Pyrrolo[2,3-d]pyrimidin-4-yl)amino)-5-methoxypiperidin-1-yl)prop-2-en-1-one]	6.30	6.86	–
C=CC(=O)N1CCC[C@@H](Nc2ncnc3[nH]cc(F)c23)C1 [Example 42, 1-{(3R)-3-[(5-fluoro-7H-pyrrolo[2,3-d]pyrimidin-4-yl)amino]piperidin-1-yl}prop-2-en-1-one]	6.09	–	6.53
C=CC(=O)N1CCC[C@@H](Nc2ncnc3[nH]cc(C)c23)C1 [Example 43, 1-{(3R)-3-[(5-methyl-7H-pyrrolo[2,3-d]pyrimidin-4-yl)amino]piperidin-1-yl}prop-2-en-1-one]	6.33	6.93	–
C=CC(=O)N1CCC[C@@H](Nc2ncnc3[nH]cc(CC)c23)C1 [Example 44, 1-{(3R)-3-[(5-ethyl-7H-pyrrolo[2,3-d]pyrimidin-4-yl)amino]piperidin-1-yl}prop-2-en-1-one]	5.93	6.49	–
C=CC(=O)N1CCC[C@@H](Nc2ncnc3[nH]cc(C#N)c23)C1 [Example 45, 4-{[(3R)-1-acryloylpiperidin-3-yl]amino}-7H-pyrrolo[2,3-d]pyrimidine-5-carbonitrile]	6.00	6.46	–
C=CC(=O)N1CCC[C@@H](Nc2ncnc3[nH]cc(CCOC)c23)C1 [Example 46, 1-[(3R)-3-{[5-(2-methoxyethyl)-7H-pyrrolo[2,3-d]pyrimidin-4-yl]amino}piperidin-1-yl]prop-2-en-1-one]	6.44	–	6.55
C=CC(=O)N1CC[C@@H](F)[C@@H](Nc2ncnc3[nH]ccc23)C1 [Example 54, 1-((3S,4R)-3-((7H-Pyrrolo[2,3-d]pyrimidin-4-yl)amino)-4-fluoropiperidin-1-yl)prop-2-en-1-one]	6.44	–	6.65
C=CC(=O)N1C[C@H](Nc2ncnc3[nH]ccc23)C[C@H](N(C)C)C1 [Example 57, 1-((3R,5S)-3-((7H-Pyrrolo[2,3-d]pyrimidin-4-yl)amino)-5-(dimethylamino)piperidin-1-yl)prop-2-en-1-one]	5.58	5.91	–
C=CC(=O)N1C[C@@H](C#N)C[C@@H](Nc2ncnc3[nH]ccc23)C1 [Example 58, (3S,5R)-5-((7H-pyrrolo[2,3-d]pyrimidin-4-yl)amino)-1-acryloylpiperidine-3-carbonitrile]	5.11	5.56	–
C=CC(=O)N1C[C@H](O)C[C@@H](Nc2ncnc3[nH]ccc23)C1 [Example 60, 1-((3R,5R)-3-((7H-Pyrrolo[2,3-d]pyrimidin-4-yl)amino)-5-hydroxypiperidin-1-yl)prop-2-en-1-one]	5.56	–	5.61
C=CC(=O)N1C[C@H](Nc2ncnc3[nH]cc(C#N)c23)CC[C@@H]1C [Example 163, 4-{[(3R,6S)-1-Acryloyl-6-methylpiperidin-3-yl]amino}-7H-pyrrolo[2,3-d]pyrimidine-5-carbonitrile]	6.28	–	6.96
C=CC(=O)N1C[C@H](Nc2ccnc3[nH]cc(C#N)c23)CC[C@@H]1C [Example 165, 4-{[(3R,6S)-1-Acryloyl-6-methylpiperidin-3-yl]amino}-1H-pyrrolo[2,3-b]pyridine-3-carbonitrile]	6.42	–	7.39
C=CC(=O)N1CCC(Nc2cnc3[nH]cc(C(=O)NC(C)C)c3n2)CC1 [Example 168, 2-[(1-acryloylpiperidin-4-yl)amino]-N-(propan-2-yl)-5H-pyrrolo[2,3-b]pyrazine-7-carboxamide]	6.87	–	7.43
C=CC(=O)N1CC[C@H](Nc2cnc3[nH]cc(C(=O)NC(C)C)c3n2)C1 [Example 171, 2-{[(3S)-1-acryloylpyrrolidin-3-yl]amino}-N-(propan-2-yl)-5H-pyrrolo[2,3-b]pyrazine-7-carboxamide]	5.53	6.14	–
C=CC(=O)N1CCN(c2cnc3[nH]cc(C(=O)NC(C)C)c3n2)CC1 [Example 174, 2-(4-acryloylpiperazin-1-yl)-N-(propan-2-yl)-5H-pyrrolo[2,3-b]pyrazine-7-carboxamide]	6.21	7.23	–
C=CC(=O)N1CCC[C@H]1CNc1cnc2[nH]cc(C(=O)NC(C)C)c2n1 [Example 177, 2-({[(2S)-1-acryloylpyrrolidin-2-yl]methyl}amino)-N-(propan-2-yl)-5H-pyrrolo[2,3-b]pyrazine-7-carboxamide]	6.09	–	6.97
C=CC(=O)N1CC(Nc2cnc3[nH]cc(C(=O)NC(C)C)c3n2)C1 [Example 188, 2-[(1-acryloylazetidin-3-yl)amino]-N-(propan-2-yl)-5H-pyrrolo[2,3-b]pyrazine-7-carboxamide]	6.61	–	6.81
C=CC(=O)N1CC[C@@H](CNc2cnc3[nH]cc(C(=O)NC(C)C)c3n2)C1 [Example 191, 2-({[(3S)-1-acryloylpyrrolidin-3-yl]methyl}amino)-N-(propan-2-yl)-5H-pyrrolo[2,3-b]pyrazine-7-carboxamide]	5.02	5.58	–
C=CC(=O)N1CC[C@@H](Nc2cnc3[nH]cc(C(=O)NC(C)C)c3n2)[C@H](O)C1 [Example 196, 2-{[(3R,4R)-1-acryloyl-3-hydroxypiperidin-4-yl]amino}-N-(propan-2-yl)-5H-pyrrolo[2,3-b]pyrazine-7-carboxamide]	5.48	5.83	–
C=CC(=O)N1CCC(Nc2cnc3[nH]cc(-c4ccnc(C)c4)c3n2)CC1 [Example 201, 1-(4-{[7-(2-methylpyridin-4-yl)-5H-pyrrolo[2,3-b]pyrazin-2-yl]amino}piperidin-1-yl)prop-2-en-1-one]	5.46	6.58	–
C=CC(=O)N1CCC(Nc2cnc3[nH]cc(-c4cncnc4)c3n2)CC1 [Example 202, 1-(4-{[7-(pyrimidin-5-yl)-5H-pyrrolo[2,3-b]pyrazin-2-yl]amino}piperidin-1-yl)prop-2-en-1-one]	5.43	6.17	–
